The test system of one series is Staphylococcus aureus. As to the kind of experiment: Minimum inhibitory concentration (MIC) in broth. It is filed as cell-based. The following applies: 10^5 cfu/mL, overnight at 37° C., no visible growth. The procedure: (§1) Zafirlukast (Sigma Aldrich, UK) was resuspended in Dimethyl Sulfoxide to a concentration of 16 mM. A minimum inhibitory concentration (MIC) was conducted using various bacterial broth solutions containing between the 0 and 4 mM zafirlukast. 10^5 cfu/mL of test organism was added to each tube before incubation overnight at 37° C. The MIC was taken to be the concentration at which no visible growth was observed. In addition, zone inhibition studies were carried out using standard techniques.
(§2) The bacterial species tested included Staphylococcus aureus, methicillin resistant Staphylococcus aureus, Enterococcus faecalis, Bacillus subtilis, Streptococcus pneumoniae, and Clostridium difficile.
(§3) MIC is well known to the skilled person and is defined as the lowest concentration of agent which prevents visible growth of the bacterial strain under investigation.

A further series deals with Bacillus subtilis. As to the kind of experiment: Minimum inhibitory concentration (MIC) in broth. It is filed as cell-based. The following applies: 10^5 cfu/mL, overnight at 37° C., no visible growth. The procedure:
as §1, §2, §3

The subject of another series is MRSA. As to the kind of experiment: Minimum inhibitory concentration (MIC) in broth. It is filed as cell-based, methicillin resistant Staphylococcus aureus. The following applies: Staphylococcus aureus, 10^5 cfu/mL, overnight at 37° C., no visible growth. As for the experimental part: as §1, §2, §3
The target in another series is Lsr2 (Mycobacterium tuberculosis, UniProt P9WIP7). The following applies: Pinault et al 2013; cited from earlier work.
The subject of the next series is Mycobacterium smegmatis. The following applies: Pinault et al 2013; cited from earlier work.
Series [1] relates to Mycobacterium tuberculosis. The following applies: Pinault et al 2013; cited from earlier work.
For series [2] the following is noted: in vivo, po; cited from earlier work.
The test system of another series is S. aureus. As to the kind of experiment: Bactericidal activity, viable counts (percentage survival). The following applies: 3 hrs at 37° C., FIG. 2. Type of series: cell-based. As for the experimental part: (§4) 10^5 cfu/mL of bacterial culture was incubated in the presence of various concentrations of zafirlukast for a period of 3 hrs at 37° C. At the end of this incubation, viable counts were taken and results recoded as percentage survival (as compared to the drug free control).

The subject of another series is B. subtilis. Described as above. It is filed as cell-based. The following applies: 3 hrs at 37° C., FIG. 2. As for the experimental part:
as §4

The next series relates to E. coli. The following applies: Pinault et al 2013; cited from earlier work.

The source of these data is patent US20180185332A1, “Leukotriene Receptor Antagonists and Their Derivatives for Use as Antibacterial Agents” (University of East London, priority 2013, published 2018).

≈ marks a conversion by molar mass, not a printed value.

Take `CO/N=C(\C(=O)N[C@@H]1C(=O)N2C(C(=O)O)=C(CSc3nc(=O)c(=O)[nH]n3C)CS[C@H]12)c1csc(N)n1` [Ceftriaxone]: the MIC (commonly the lowest concentration that inhibits growth of the organism) against Staphylococcus aureus was 2 µM (≈ 1.11 µg/mL); with Bacillus subtilis it was greater than 29 µM; with MRSA, 22 µM (≈ 12.2 µg/mL).
In the same order, the values of `O=C(O)c1cn(C2CC2)c2cc(N3CCNCC3)c(F)cc2c1=O` [Ciprofloxacin] are 3 µM (≈ 0.994 µg/mL), greater than 12 µM and 40 µM (≈ 13.3 µg/mL).
Consider `COc1cc(C(=O)NS(=O)(=O)c2ccccc2C)ccc1Cc1cn(C)c2ccc(NC(=O)OC3CCCC3)cc12` [Zafirlukast, [3-[2-Methoxy-4-(toluene-2-sulfonylaminocarbonyl)benzyl]-I-methyl-IH-indol-5-yl]carbamic acid cyclopentyl ester], for which the MIC worked out at 30 µM (≈ 17.3 µg/mL) in the series on Staphylococcus aureus, 6 µM (≈ 3.45 µg/mL) in the series on Bacillus subtilis and 6 µM (≈ 3.45 µg/mL) against MRSA. Besides, on Lsr2, the “complexation of Lsr2 with DNA” value is reported as “inhibits the complexation”. The “bactericidal activity against M. smegmatis” value with Mycobacterium smegmatis is given as “exhibits bactericidal activity”. Moreover, in the series with Mycobacterium smegmatis, the “growth of Mycobacterium smegmatis” value is given as “inhibits the growth”. The “growth of Mycobacterium tuberculosis” value in series [1] is “inhibits the growth”. For the same compound, in series [2], the plasma half-life result is given as “approximately 10 hours”. Further, the bactericidal activity entry in the series on S. aureus and in the series on B. subtilis was “bactericidal activity” in each case. In addition, the “effect on the growth of E. coli” value in the series on E. coli is reported as “no effect”.
